According to patent US8492374B2, “Azaazulene compounds” (Industrial Technology Research Institute, priority 2009, dated 2013):

How the values were obtained:
[1] = system: MV4-11 (FLT3-ITD) cell line; assay: In vitro cell activity assay (MTT cell viability, 72 hours); format: cell-based; conditions: Homo sapiens, 72 hours at 37° C., 10,000 cells per well, read-out: IC50 against MV4-11
Experimental: Human MV4-11 (FLT3-ITD) cell line was obtained from American Tissue Culture Collection (ATCC number: CRL-9591). The cell line was cultured with RPMI 1640 containing 10% fetal bovine serum, 1 mmol/L sodium pyruvate and 10 mmol/L HEPES (pH 7.4). The cell was grown and maintained in a humidified atmosphere at 37° C. and 5% carbon dioxide.
MV4-11 cell was plated in 96-well microtiter plates (10,000 cells per well) and serial dilutions of indicated compounds were added. At the end of the incubation period (72 hours at 37° C.), cell viability was determined by a tetrazolium dye, MTT (3-(4,5-dimethylthiazol-2-yl)-2,5-diphenyl tetrazolium bromide) (Promega, Madison, Wis.). The formazan crystals were dissolved by DMSO, and the absorbance at a wavelength of 600 nm was recorded using an ELISA plate reader. IC50 values were calculated using nonlinear regression and defined as the concentration needed for a 50% reduction in absorbance of treated versus untreated control cells.

[2] = biological target: T1, FLT-3 kinase (Homo sapiens, UniProt P36888); assay: FLT-3 kinase DELFIA assay (HTScan FLT-3 Kinase Assay Kit); format: biochemical; conditions: 20 uM ATP; for inhibition at 0.1 µM: 0.1 uM compound; for inhibition at 1 µM: 1 uM compound
T1 construct: human FLT-3 (Arg571-Ser993); GST (N); purchased Cell Signaling Technology HTScan FLT-3 Kinase Assay Kit; host or cells: baculovirus expression system
T1 sequence (P36888 571-993): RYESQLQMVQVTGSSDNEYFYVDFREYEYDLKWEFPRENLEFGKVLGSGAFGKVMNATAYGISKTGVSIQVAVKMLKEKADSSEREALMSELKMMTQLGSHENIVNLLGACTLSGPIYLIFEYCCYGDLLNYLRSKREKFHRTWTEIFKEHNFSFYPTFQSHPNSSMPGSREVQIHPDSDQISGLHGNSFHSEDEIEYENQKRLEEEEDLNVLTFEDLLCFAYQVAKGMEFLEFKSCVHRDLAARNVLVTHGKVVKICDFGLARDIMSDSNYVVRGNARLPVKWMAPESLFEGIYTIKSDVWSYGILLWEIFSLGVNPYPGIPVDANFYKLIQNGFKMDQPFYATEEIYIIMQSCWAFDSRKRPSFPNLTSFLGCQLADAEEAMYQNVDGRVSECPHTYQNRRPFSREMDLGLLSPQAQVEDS
Experimental: Azaazulene Compounds of this invention were treated for their efficacy in inhibiting activities of FLT-3, c-KIT and KDR kinases by biochemical DELFIA (Dissociation Enhanced Lanthanide FIA) assays according to the procedure described below. The assays were conducted by, Division of Cell Engineering, Biomedical Engineering Research Laboratories, Industrial Technology Research Institute, Bldg. 53, 195, sec. 4, Chung Hsing Rd. Chutung, Hsinchu, Taiwan 310, R.O.C.
The FLT-3 assay was conducted following the protocol described in Protocol for HTScang FLT-3 Kinase Assay Kit (Cell Signaling Technology®).

Row | IC50 [1] | inhibition at 0.1 µM [2] | inhibition at 1 µM [2] | Compound
1 | 146 nM | 55.6% | 96.1% | O=Cc1ccc(N2CCN(c3ccc4[nH]c(-c5c6cccccc-6[nH]c5=O)nc4c3)CC2)o1 [Compound B59]
2 | 5.9 nM | 71.7% | 99.1% | O=c1[nH]c2cccccc-2c1-c1nc2cc(N3CCN(c4ccncc4)CC3)ccc2[nH]1 [Compound B60]
3 | 270 nM | 17.7% | 74.3% | O=c1[nH]c2cccccc-2c1-c1nc2cc(N3CCN(c4c(F)cncc4F)CC3)ccc2[nH]1 [Compound B61]
4 | > 5000 nM | 9.5% | 13.7% | Nc1cc(N2CCN(c3ccc4[nH]c(-c5c6cccccc-6[nH]c5=O)nc4c3)CC2)ccn1 [Compound B62]
5 | 473 nM | 18.9% | 33.4% | O=c1[nH]c2cccccc-2c1-c1nc2cc(N3CCN(c4cccnc4)CC3)ccc2[nH]1 [Compound B63]
6 | 250 nM | 29.5% | 79.2% | O=c1[nH]c2cccccc-2c1-c1nc2cc(N3CCN(c4ccccn4)CC3)ccc2[nH]1 [Compound B64]
7 | 278 nM | 16.3% | 60.5% | O=c1[nH]c2cccccc-2c1-c1nc2cc(N3CCN(c4ncccc4[N+](=O)[O-])CC3)ccc2[nH]1 [Compound B65]
8 | 466 nM | 20.3% | 55.5% | O=c1[nH]c2cccccc-2c1-c1nc2cc(N3CCN(c4ncccc4Cl)CC3)ccc2[nH]1 [Compound B66]
9 | 77.8 nM | 43.3% | 95.3% | Cc1cc(N2CCN(c3ccc4[nH]c(-c5c6cccccc-6[nH]c5=O)nc4c3)CC2)nc(N(C)C)n1 [Compound B67]
10 | 234 nM | 39.1% | 80.7% | O=c1[nH]c2cccccc-2c1-c1nc2cc(N3CCN(c4ncccn4)CC3)ccc2[nH]1 [Compound B68]
11 | 100 to 500 nM | 29.3% | 77.3% | O=c1[nH]c2cccccc-2c1-c1nc2cc(N3CCN(c4cnccn4)CC3)ccc2[nH]1 [Compound B69]
12 | 957 nM | 6.8% | 39.3% | CN1CCN(C(=O)c2ccc3[nH]c(-c4c5cccccc-5[nH]c4=O)nc3c2)CC1 [Compound B71]
13 | 50 to 100 nM | 36.8% | 85.5% | O=C(c1ccc2[nH]c(-c3c4cccccc-4[nH]c3=O)nc2c1)N1CCN(c2ccncc2)CC1 [Compound B72]
14 | ~1000 nM | 23.7% | 22.3% | O=C(Nc1ccc(N2CCCC2)cn1)c1ccc2[nH]c(-c3c4cccccc-4[nH]c3=O)nc2c1 [Compound B73]
15 | 163 nM | 27.1% | 64% | CN1CCCN(C(=O)c2ccc3[nH]c(-c4c5cccccc-5[nH]c4=O)nc3c2)CC1 [Compound B74]
16 | ~1000 nM | 13.4% | 37.1% | O=C(Nc1ccc2[nH]c(-c3c4cccccc-4[nH]c3=O)nc2c1)c1ccncc1 [Compound B75]
17 | 25.6 nM | 50% | 92.9% | O=c1[nH]c2cccccc-2c1-c1nc2cc(N3CCCNCC3)ccc2[nH]1 [Compound B76]
18 | 39.2 nM | 47.1% | 94.3% | CN1CCCN(c2ccc3[nH]c(-c4c5cccccc-5[nH]c4=O)nc3c2)CC1 [Compound B77]
19 | 100 to 500 nM | 20.3% | 39.4% | O=c1[nH]c2cccccc-2c1-c1nc2cc(N3CCCN(CCF)CC3)ccc2n1CCF [Compound B78]
20 | 346 nM | 22.3% | 36.6% | O=c1[nH]c2cccccc-2c1-c1nc2cc(N3CCCNCC3)ccc2n1CCF [Compound B79]
21 | 131 nM | 44.4% | 89.8% | CN1CCCN(c2cc3nc(-c4c5cccccc-5[nH]c4=O)[nH]c3cc2F)CC1 [Compound B85]
